Test results as given in patent US20070073039A1, “Peptides that inhibit viral infections” (priority 2005, published 2007).
Where two headings read alike, the source gives them in different places.

Tests used:
[1] = system: HCV; assay: Median effective concentration (EC50) by intracellular HCV RNA RT-QPCR; type: cell-based, Hepatitis C virus (JFH-1); settings: Huh-7.5.1 cells, MOI 0.1
Method: (§1) To determine the median effective concentration (EC50) of peptide #1, peptide stock solution (3.6 mM in DMSO) was serially 2-fold diluted in DMSO. An aliquot of peptide from each dilution was then diluted 1:100 in complete growth medium and mixed with equal volume of virus supernatant. The virus-peptide mixture was then used to infect Huh-7.5.1 cells (MOI=0.1). After adsorption for 4 hours at 37° C., the virus-peptide inoculum was removed. The cells were washed 2 times, overlaid with 120 μL fresh growth medium and incubated at 37° C. for 3 days. Cells were lysed and subjected to RNA analysis. The HCV RNA transcript level was measured by real time RT-QPCR and normalized to cellular GAPDH levels. The inhibition of HCV infection was calculated by comparing the intracellular HCV RNA transcript between the peptide treatment and solvent control.
as §1, with “(EC50) of the L- and D-form” for “(EC50)”, “serially diluted” for “serially”, “2-fold” for “2-fold diluted”

[2] = Serum stability of L- and D-type peptides (10% FBS, 37° C., antiviral readout); type: in vitro ADME; settings: within 1 hour
From the text: Peptides composed of L-amino acids are susceptible to proteolysis, which could shorten their half-life and, thus, their biological activity. To examine this possibility and to determine if specific peptide-viral protein interactions mediate antiviral activity, peptide 1 was synthesized using all D-amino acids, purified to >95% homogeneity, and its antiviral activity and serum stability were compared with a similarly pure preparation of the L-type version of peptide #1. Both L- and D-type peptides were diluted 1:100 in complete growth medium (10% FBS) and mixed with an equal volume of viral supernatant.
In addition, to compare the serum stability of the L- and D-type peptides, the diluted peptide was incubated at 37° C. for 1 hour, 2 hours and 4 hours before mixing with viral supernatant. The virus-peptide mixture was then used to infect Huh-7.5.1 cells (MOI=0.1). After adsorption for 4 hours at 37° C., the virus-peptide inoculum was removed. The cells were washed 2 times, overlaid with 120 μL fresh growth medium and incubated at 37° C. for 3 days. Cells were lysed and subjected to RNA analysis. The HCV RNA transcript level was measured by real time RT-QPCR and normalized to cellular GAPDH levels. […] Thus, in addition to low immunogenicity and possible oral bioavailability, peptides composed of D-amino acids have the potential therapeutic advantage of enhanced serum stability.

[3] = MTT cytotoxicity assay; type: cell-based; settings: human, hepatocyte cell lines, read-out: LD50 (MTT cytotoxicity)
Method: Peptide cytotoxicity was measured by MTT cytotoxicity assay based on the protocol provided in the ATCC MTT assay kit (Cat #30-1010K). In brief, 5000-10,000 cells were seeded per well in a 96 well plate. Following overnight growth, 100 μL fresh medium plus 20 μL of 2-fold serially diluted peptide was added. Media without peptides was added to at least 3 wells as untreated controls. The cells were then incubated for 72 hours at 37° C., 5% CO2. After this incubation, 1/10 volume of MTT solution ([…] in PBS) was added to each well, and the cells were returned to the incubator. Two hours later, the medium was removed, 150 μL DMSO was added to dissolve the purple precipitate formazan, and the plate was shaken at 150 rpm for 10 minutes. Absorbance at 570 nm less background at 670 nm is a reliable measure of […]. Cytotoxicity (LD50) of individual peptides was defined as the peptide concentration that caused 50% cell death.

[4] = Preliminary in vivo toxicity in mice
Method: As a preliminary measurement of the in vivo cytotoxicity of the peptides 1, 2 and 3 (see Table 4) a group of three mice (BALB/c mice, 7 weeks old, about 23 g) were each injected with 92 μg L-type peptide 1 ( ˜4 mg/kg) in 200 μL PBS (spun 14,000 rpm for 3 minutes before injection). In the control group, each of three mice was given 200 μL PBS containing 5% DMSO. The mice were monitored for acute toxicity during the first 3 hours after injection.
No change in appearance, activity or behavior was observed. The mice were then weighed on days 0, 3, 5, 7 and 10. Peptide-injected mice gained weight at the same rate as the controls.

[5] = system: Dengue-2; assay: Dengue-2 infection of Vero cells, Intracellular FACS Assay; type: cell-based; settings: 20 μM
Method: Intracellular FACS Assay: Vero cells were seeded for 24 h pre-infection in 6-well plates. Cells were exposed to Dengue-2 in the presence of increasing concentrations of peptide (or DMSO as control). Viruses and peptide were washed away 2 h post-infection. Cells were taken for intracellular staining 3 days post-infection. Cells were stained with appropriate isotype control, Dengue Env, Dengue capsid or tubulin antibodies. Cells were analyzed by FACS.

[6] = system: Huh-7.5.1 cells; assay: Toxicity on Huh-7.5.1 cells incubated with peptides
[7] = system: JFH-1 virus; assay: Interferon treatment of Huh-7.5.1 cells before JFH-1 infection; type: cell-based, Hepatitis C virus (JFH-1); settings: 5, 50 and 500 IU/mL; Huh-7.5.1, MOI 0.3; 3 days
Method: The viral inoculum was removed 4 hours later and the cells were further cultured with interferon for 3 days. At that time cells were harvested, RNA was isolated and analyzed by real-time RT-PCR to determine the intracellular HCV RNA levels. Bars represent intracellular HCV RNA levels expressed as a % of the levels obtained in the control infections.
Interferon treatment. […] The inoculum was removed after 3 hours of incubation at 37° C., and fresh DMEM supplemented with the indicated doses of IFN was added to the cells. The efficiency of the infection was monitored 72 hours later by quantitative RT-PCR.

[8] = system: HCV; assay: HCV focus reduction assay; type: cell-based, Hepatitis C virus (JFH-1); settings: 72 h; working concentration 18.4-27.5 μM per peptide; Mock 51
Summary of the method: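 Huh-7.5.1 cells infected with 50 ffu HCV premixed with peptide (~20 μM screen; derivatives at 18, 6 and 2 μM), 4 h adsorption at 37 °C, then washed and cultured 3 days. Foci immunostained for NS5A and counted by fluorescence microscopy. Values are % of mock with 0.5% DMSO solvent.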

[9] = system: HCV; assay: Intracellular HCV RNA by real time RT-QPCR after infection of Huh-7.5.1 cells with and without peptide; type: cell-based, Hepatitis C virus (JFH-1); settings: working concentration 18.4-27.5 μM per peptide
[10] = system: Dengue-2; assay: Dengue-2 infection of Vero cells, Enzyme-linked Immunosorbent Assay; type: cell-based; settings: for Inhibition of Dengue Infection, α-Capsid 9A7 / Inhibition of Dengue Infection, α-DEN ENV: Vero cells, 5 days
Method: Enzyme-linked Immunosorbent Assay. Vero cells (80,000 cells/well/ml) were seeded for 24 h pre-infection in 24-well plates. Cells were exposed to Dengue-2 (derived from Vero cells) in the presence of increasing concentration of peptide (or DMSO as control). Viruses and peptide were not removed (cells were not washed) throughout the incubation. Infection was analyzed after 5 days using ELISA that measured the amounts of Dengue-2 capsid released in the supernatant of infected Vero cells.

[11] = system: Dengue-2; assay: Dengue-2 Fluorescent Foci Assay; type: cell-based; settings: FIG. 19; 20 μM
Method: Fluorescent Foci Assay: Vero cells were seeded for 24 h pre-infection in 96-well plates. Cells were exposed to Dengue-2 in the presence of increasing concentrations of peptide (or DMSO as control). Viruses and peptide were washed away 2 h post-infection. Supernatants were collected every 3 days post-infection and added to fresh Vero cells for fluorescent foci assay. Newly infected Vero cells were fixed with 4% formaldehyde after 3 days. Cells were then stained with Dengue Env antibodies followed by Alexa-fluor dye conjugated secondary antibodies. Foci were counted using a fluorescent microscope.
Fluorescent Foci Assay. Vero cells were seeded for 24 hours pre-infection in 96-well plates. Cells were exposed to Dengue-2 in the presence of increasing concentrations of peptide (or DMSO as control). Viruses and peptide were washed away 2 hours post-infection. Supernatants were collected every 3 days post-infection and added to fresh Vero cells for fluorescent foci assay. Newly infected Vero cells were fixed with 4% formaldehyde after 3 days. Cells were then stained with antibodies directed to the Dengue Envelop protein followed by Alexa-fluor dye conjugated secondary antibodies. Foci were counted using a fluorescent microscope.

[12] = system: Dengue-2; assay: Dengue-2 infection of Vero cells, Enzyme-linked Immunosorbent Assay; type: cell-based; settings: 1.25 μM, 5 days

Molecule: CC[C@H](C)[C@H](NC(=O)[C@H](CC(=O)O)NC(=O)[C@H](CCCNC(=N)N)NC(=O)[C@H](CC(C)C)NC(=O)[C@H](Cc1c[nH]c2ccccc12)NC(=O)[C@@H](N)CO)C(=O)N[C@@H](Cc1c[nH]c2ccccc12)C(=O)N[C@@H](CC(=O)O)C(=O)N[C@@H](Cc1c[nH]c2ccccc12)C(=O)N[C@H](C(=O)N[C@@H](CS)C(=O)N[C@@H](CCC(=O)O)C(=O)N[C@H](C(=O)N[C@@H](CC(C)C)C(=O)N[C@@H](CO)C(=O)N[C@@H](CC(=O)O)C(=O)N[C@@H](Cc1ccccc1)C(=O)N[C@@H](CCCCN)C(=O)O)C(C)C)[C@@H](C)CC [Peptide 1]
- EC50 ([1]; FIG. 12B-C, 3 days, read-out: EC50 of the L- and D-forms of peptide 1): ~1000 nM
- EC50 ([1]; peptide with virus 4 hours, HCV RNA after 3 days, listed as peptide 1, read-out: EC50 against HCV infection): 300 nM
- EC50 ([1]; peptide with virus 4 hours, HCV RNA after 3 days, listed as peptide #1, read-out: EC50 against HCV infection): ~300 nM
- EC50 ([1]; peptide with virus 4 hours, HCV RNA after 3 days, read-out: EC50 against HCV infection): 289 nM
- Antiviral activity lost on incubation in 10% FBS at 37° C. [2]: approximately 95%
- CC50 at 72 h ([3]; with FBS): 26700 nM
- CC50 at 72 h ([3]; without FBS): 3800 nM
- In vivo toxicity observation ([4]; 92 μg ( ˜4 mg/kg) in 200 μL PBS, acute toxicity first 3 hours, weight to day 10): Peptides 1, 2 and 3 are Nontoxic in C57BL/6 Mice
- Weight(g) (d.0) ([4]; day 0, ˜4 mg/kg injected): 22.2 g
- Weight(g) (d.3) ([4]; day 3): 22.3 g
- Weight(g) (d.5) ([4]; day 5): 22.8 g
- Weight(g) (d.7) ([4]; day 7): 23.1 g
- Weight(g) (d.10) ([4]; day 10): 23.5 g
- % of Dead cells PI ([5]; propidium iodide staining, Vero cells 3 days post-infection): 1.88%
- Evidence of toxicity / cytotoxicity [6]: without evidence of cytotoxicity

Molecule: IFNγ: human IFNγ (PBL Biomedical Lab, Piscataway, N.J.)
- Inhibition of HCV infection by interferons [7]: efficiently inhibit HCV infection

Molecule: LRDIWDWICEVLSDFK [^N-16mer]
- Focus Reduction (72 h) [8]: 125
- Fold Inhibition on HCV RNA (24 h) ([9]; 24 h): 0.7 fold
- Fold Inhibition on HCV RNA (72 h) ([9]; 72 h): 0.6 fold
- Inhibition of Dengue Infection, α-Capsid 9A7 ([10]; 1.25 μM): 12.82%
- Inhibition of Dengue Infection, α-Capsid 9A7 ([10]; 5 μM): 16.01%
- Inhibition of Dengue Infection, α-DEN ENV ([10]; 5 μM): 33.64%
- Inhibition of Dengue Infection, α-Capsid 9A7 ([10]; 20 μM): 82.2%
- Inhibition of Dengue Infection, α-DEN ENV ([10]; 20 μM): 74.83%
- Inhibition of Dengue viral infection as detected by ELISA ([10]; FIG. 17, 20 μM): about 84%
- Inhibition of Dengue viral infection as detected by FACS ([5]; FIG. 18): about 80%
- Inhibition of Dengue viral infection by immunofluorescence assay [11]: about 90%
- Inhibition of Dengue Infection, α-DEN ENV [12]: 10.24%
